Values of other authors in US20240350385A1 (priority 2023, published 2024).

System: patients
Conditions: in vivo

**Q.** Which “incidence of allergic contact dermatitis” value does the source give for `C=C(C#N)C(=O)OCCCC` [n-Butyl cyanoacrylate] here?
**A.** 2.2%

**Q.** For 2-Octyl cyanoacrylate, which “incidence of allergic contact dermatitis” value is on record?
**A.** 2.7%
